One assay has as its system aorta rings. Nature of the assay: Vessel-relaxing action in vitro (aorta rings, phenylephrine contraction). To be noted: Oryctolagus cuniculus, concentration required to reduce phenylephrine-induced contraction of rabbit aorta rings by 50%. The gist of the method: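 Rabbit aortic rings 1.5 mm wide were held under preload in carbogen-gassed Krebs-Henseleit at 37 °C and contracted with cumulative phenylephrine. Test substance was added in rising doses on successive passes, each compared with the preceding control contraction. IC50 is the concentration that halves contraction, with 0.1% DMSO in the bath.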

Assay [1] addresses T1, human phosphodiesterase 5 (PDE-5) (Homo sapiens, UniProt O76074).
T1 construct: PDE-5 preparations are obtained from human platelets by lysis; from tissue; host or cells: human platelets
Nature of the assay: Inhibition of human phosphodiesterase 5 (PDE-5), SPA assay. In kind it is biochemical. The note with it: PDE-5 preparation from human platelets, [8-3H]cGMP substrate. The gist of the method:
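PDE-5 partially purified from human platelets by Mono Q chromatography, diluted so under 70% of [8-3H]cGMP (0.025 μCi) converted. Compounds at 4 μM to 0.0018 μM final, Tris-HCl pH 7.5 with MgCl2, 60 min at room temperature. Yttrium SPA beads stop reaction; IC50 from concentration–inhibition plots.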

The target of assay [2] is T2, recombinant guanylate cyclase reporter cell line (Rattus norvegicus, UniProt P19686+P20595).
T2 construct: expressed in transfected cells
T2 sequence (P20595 1-619): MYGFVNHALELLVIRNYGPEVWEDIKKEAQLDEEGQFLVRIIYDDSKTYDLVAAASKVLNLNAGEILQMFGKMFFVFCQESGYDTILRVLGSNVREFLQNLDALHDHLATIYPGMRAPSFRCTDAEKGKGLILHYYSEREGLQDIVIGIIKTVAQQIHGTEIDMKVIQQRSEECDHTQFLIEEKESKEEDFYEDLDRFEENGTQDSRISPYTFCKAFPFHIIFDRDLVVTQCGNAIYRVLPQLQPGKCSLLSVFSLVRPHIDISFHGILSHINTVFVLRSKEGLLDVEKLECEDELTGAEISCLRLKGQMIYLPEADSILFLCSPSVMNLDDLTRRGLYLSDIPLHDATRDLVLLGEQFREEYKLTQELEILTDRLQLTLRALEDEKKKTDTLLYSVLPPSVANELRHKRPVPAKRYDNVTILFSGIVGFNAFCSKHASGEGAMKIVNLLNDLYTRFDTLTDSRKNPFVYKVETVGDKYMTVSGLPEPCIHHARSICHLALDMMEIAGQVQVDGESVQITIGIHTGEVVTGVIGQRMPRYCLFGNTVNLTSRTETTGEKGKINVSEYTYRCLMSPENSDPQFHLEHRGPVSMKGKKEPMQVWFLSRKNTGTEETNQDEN
T2 sequence (P19686 1-690): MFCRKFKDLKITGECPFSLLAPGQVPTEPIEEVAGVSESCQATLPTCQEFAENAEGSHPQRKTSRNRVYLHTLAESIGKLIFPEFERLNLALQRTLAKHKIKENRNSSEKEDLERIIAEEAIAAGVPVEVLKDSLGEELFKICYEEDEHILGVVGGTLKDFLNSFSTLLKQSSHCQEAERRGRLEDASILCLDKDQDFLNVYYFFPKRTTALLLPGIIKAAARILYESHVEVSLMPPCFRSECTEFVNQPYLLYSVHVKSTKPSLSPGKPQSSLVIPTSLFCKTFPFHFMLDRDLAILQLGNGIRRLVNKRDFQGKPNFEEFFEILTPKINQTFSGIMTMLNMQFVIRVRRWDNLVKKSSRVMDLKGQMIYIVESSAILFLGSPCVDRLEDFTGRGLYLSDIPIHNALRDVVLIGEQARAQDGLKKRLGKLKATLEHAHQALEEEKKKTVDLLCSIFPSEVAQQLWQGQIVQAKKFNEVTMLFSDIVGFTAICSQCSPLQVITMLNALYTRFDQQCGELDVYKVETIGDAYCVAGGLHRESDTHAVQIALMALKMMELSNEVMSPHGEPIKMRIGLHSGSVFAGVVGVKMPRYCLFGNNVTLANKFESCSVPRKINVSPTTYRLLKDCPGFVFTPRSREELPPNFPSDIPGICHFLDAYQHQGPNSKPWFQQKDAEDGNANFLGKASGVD
Nature of the assay: Action on recombinant guanylate cyclase reporter cell line. In kind it is cell-based. How it is done: B-2. Action on Recombinant Guanylate Cyclase Reporter Cell Line
The cellular action of the compounds according to the invention is determined on a recombinant guanylate cyclase reporter cell line, as described in F. Wunder et al., Anal. Biochem. 339, 104-112 (2005).

Structures are written as SMILES.

In the case of `CC1(C)C(=O)Nc2nc(-c3nn(Cc4ccccc4F)c4ncc(F)cc34)nc(NCC3CC3(C)C)c21` (stereo not drawn) [Example 99, 4-{[(2,2-Dimethylcyclopropyl)methyl]amino}-2-[5-fluoro-1-(2-fluorobenzyl)-1H-pyrazolo[3,4-b]pyridin-3-yl]-5,5-dimethyl-5,7-dihydro-6H-pyrrolo[2,3-d]pyrimidin-6-one], the IC50 in the assay with aorta rings is 10000 nM; in assay [1], 440 nM. The “MEC (minimal effective concentration)” value in assay [2] stood at 0.3 μm.

Consider `O=C1Nc2nc(-c3nn(Cc4ccccc4F)c4ncc(F)cc34)nc(NCCC(F)(F)F)c2C12CCOC2` (stereo not drawn) [Example 100, 2′-[5-Fluoro-1-(2-fluorobenzyl)-1H-pyrazolo[3,4-b]pyridin-3-yl]-4′-[(3,3,3-trifluoropropyl)amino]-4,5-dihydrospiro[furan-3,5′-pyrrolo[2,3-d]pyrimidin]-6′(7′H)-one], for which the IC50 in the assay on aorta rings came to 4760 nM; in assay [1] it was 2800 nM. Also, the “MEC (minimal effective concentration)” value in assay [2] is 0.3 μm.

Regarding `CC1(C)C(=O)Nc2nc(-c3nn(Cc4ccccc4F)c4ncc(F)cc34)nc(O)c21` [Example 102, 2-[5-Fluoro-1-(2-fluorobenzyl)-1H-pyrazolo[3,4-b]pyridin-3-yl]-4-hydroxy-5,5-dimethyl-5,7-dihydro-6H-pyrrolo[2,3-d]pyrimidin-6-one], the results for the IC50 (with aorta rings; in assay [1]) were 156 nM and 74 nM, respectively. In addition, in assay [2], the “MEC (minimal effective concentration)” value amounted to 1 μm.

Take `CC1(C)C(=O)Nc2nc(-c3nn(Cc4ccccc4F)c4ncc(F)cc34)nc(N3CCC(F)(F)CC3)c21` [Example 103, 4-(4,4-Difluoropiperidin-1-yl)-2-[5-fluoro-1-(2-fluorobenzyl)-1H-pyrazolo[3,4-b]pyridin-3-yl]-5,5-dimethyl-5,7-dihydro-6H-pyrrolo[2,3-d]pyrimidin-6-one]: the IC50 worked out at 551 nM in the assay on aorta rings and 400 nM in assay [1]. Besides, the “MEC (minimal effective concentration)” value in assay [2] was found to be 1 μm.

Consider `CC1(C)C(=O)Nc2nc(-c3nn(Cc4ccccc4F)c4ncc(F)cc34)nc(N3CC(O)C3)c21` [Example 104, 2-[5-Fluoro-1-(2-fluorobenzyl)-1H-pyrazolo[3,4-b]pyridin-3-yl]-4-(3-hydroxyazetidin-1-yl)-5,5-dimethyl-5,7-dihydro-6H-pyrrolo[2,3-d]pyrimidin-6-one], for which the values for the IC50 (in the assay on aorta rings; in assay [1]) were 482 nM and 80 nM, respectively. In assay [2], the “MEC (minimal effective concentration)” value is 0.1 μm.

In the case of `CC1(C)C(=O)Nc2nc(-c3nn(Cc4ccccc4F)c4ncccc34)nc(N3CC(N4CCCC4)C3)c21` [Example 105, 2-[1-(2-Fluorobenzyl)-1H-pyrazolo[3,4-b]pyridin-3-yl]-5,5-dimethyl-4-[3-(pyrrolidin-1-yl)azetidin-1-yl]-5,7-dihydro-6H-pyrrolo[2,3-d]pyrimidin-6-one], the IC50 is 478 nM in the assay with aorta rings and 980 nM in assay [1]. For the same molecule, the “MEC (minimal effective concentration)” value in assay [2] turned out to be 0.3 μm.

Regarding `CC1(C)C(=O)Nc2nc(-c3nn(Cc4ccccc4F)c4ncccc34)nc(N3CC(N)C3)c21` [Example 107, 4-(3-Aminoazetidin-1-yl)-2-[1-(2-fluorobenzyl)-1H-pyrazolo[3,4-b]pyridin-3-yl]-5,5-dimethyl-5,7-dihydro-6H-pyrrolo[2,3-d]pyrimidin-6-one], the IC50 in the assay on aorta rings came to 700 nM; in assay [1], 100 nM. Moreover, the “MEC (minimal effective concentration)” value in assay [2] stood at 1 μm.

On to `Cc1ncc2c(-c3nc(NCCC(F)(F)F)c4c(n3)NC(=O)C4(C)C)nn(Cc3ccccc3F)c2n1` [Example 108, 2-[1-(2-Fluorobenzyl)-6-methyl-1H-pyrazolo[3,4-d]pyrimidin-3-yl]-5,5-dimethyl-4-[(3,3,3-trifluoropropyl)amino]-5,7-dihydro-6H-pyrrolo[2,3-d]pyrimidin-6-one], for which the IC50 stood at 444 nM with aorta rings and 25 nM in assay [1]. For the same molecule, in assay [2], the “MEC (minimal effective concentration)” value turned out to be 0.3 μm.

Take `CC1(C)C(=O)Nc2nc(-c3nn(Cc4ccccc4F)c4ncccc34)nc(O)c21` [Example 109, 2-[1-(2-Fluorobenzyl)-1H-pyrazolo[3,4-b]pyridin-3-yl]-4-hydroxy-5,5-dimethyl-5,7-dihydro-6H-pyrrolo[2,3-d]pyrimidin-6-one]: the IC50 in the assay with aorta rings came out at 81 nM; in assay [1], 50 nM. Moreover, the “MEC (minimal effective concentration)” value in assay [2] came to 0.03 μm.

Turning to `CCCOc1nc(-c2nn(Cc3ccccc3F)c3ncccc23)nc2c1C(C)(C)C(=O)N2` [Example 111, 2-[1-(2-Fluorobenzyl)-1H-pyrazolo[3,4-b]pyridin-3-yl]-5,5-dimethyl-4-propoxy-5,7-dihydro-6H-pyrrolo[2,3-d]pyrimidin-6-one], the results for the half-inhibitory concentration (IC50) (in the assay with aorta rings; in assay [1]) were 1620 nM and 320 nM, respectively. Moreover, the “MEC (minimal effective concentration)” value in assay [2] is recorded as 0.3 μm.

For `CCOc1nc(-c2nn(Cc3ccccc3F)c3ncccc23)nc2c1C(C)(C)C(=O)N2` [Example 112, 4-Ethoxy-2-[1-(2-fluorobenzyl)-1H-pyrazolo[3,4-b]pyridin-3-yl]-5,5-dimethyl-5,7-dihydro-6H-pyrrolo[2,3-d]pyrimidin-6-one], the IC50 was determined as 1620 nM with aorta rings and 210 nM in assay [1]. Further, in assay [2], the “MEC (minimal effective concentration)” value is reported as 0.1 μm.

With `CC1(C)C(=O)Nc2nc(-c3nn(Cc4ccccc4F)c4ncccc34)nc(OCC3CC3)c21` [Example 113, 4-(Cyclopropylmethoxy)-2-[1-(2-fluorobenzyl)-1H-pyrazolo[3,4-b]pyridin-3-yl]-5,5-dimethyl-5,7-dihydro-6H-pyrrolo[2,3-d]pyrimidin-6-one], the figures for the IC50 (with aorta rings; in assay [1]) were 1960 nM and 120 nM, respectively. Also, the “MEC (minimal effective concentration)” value in assay [2] came out at 0.1 μm.

For `CC1(C)C(=O)Nc2nc(-c3nn(Cc4ccccc4F)c4ncccc34)nc(OCC(F)(F)F)c21` [Example 115, 2-[1-(2-Fluorobenzyl)-1H-pyrazolo[3,4-b]pyridin-3-yl]-5,5-dimethyl-4-(2,2,2-trifluoroethoxy)-5,7-dihydro-6H-pyrrolo[2,3-d]pyrimidin-6-one], the IC50 in the assay on aorta rings is 1630 nM; in assay [1], 250 nM. The “MEC (minimal effective concentration)” value in assay [2] was 0.3 μm.

As for `CC1(C)C(=O)Nc2nc(-c3nn(Cc4ccccc4F)c4ncccc34)nc(OCCO)c21` [Example 117, 2-[1-(2-Fluorobenzyl)-1H-pyrazolo[3,4-b]pyridin-3-yl]-4-(2-hydroxyethoxy)-5,5-dimethyl-5,7-dihydro-6H-pyrrolo[2,3-d]pyrimidin-6-one], the IC50 with aorta rings worked out at 38 nM; in assay [1] it was 52 nM. The “MEC (minimal effective concentration)” value in assay [2] is given as 0.03 μm.

One may read the IC50 as the midpoint of a concentration-inhibition curve.
